Laboratory results taken from US5200549A, “Antipsoriatic agents” (Hoffman-La Roche Inc., priority 1991, dated 1993).

What was measured:
[1] = test system: Cholesterol Biosynthesis in HepG2 Cells; assay: Inhibition of cholesterol biosynthesis in HepG2 cells (3H2O incorporated into cholesterol); type: cell-based; conditions: for activity as cholesterol biosynthesis inhibitors: HepG2 cells, in words; for IC50: Homo sapiens
Description: HepG2 cells are maintained in 175 cm^2 T flasks in Darlington Medium supplemented with 10% fetal bovine serum (FBS). Darlington Medium consists of 3 parts Minimal Essential Medium, 1 part Waymouth's MAB87/3 medium and 3×10^-8 M sodium selenite. This medium is supplemented with 100 U/ml penicillin, 100 ug/ml streptomycin and 2.5 ug/ml Fungizone. In order to establish optimal conditions for the whole cell cholesterol biosynthesis assay, preliminary experiments were performed. 0.25, 0.5, 0.75 or 1×10^6 cells were seeded into 6 well cluster plates in 2 ml of fully supplemented Darlington Medium. The serum supplemented medium was aspirated after 72 hours and replaced with serum free Darlington Medium with antibiotics. After 24, 48 or 72 hours serum free, the cells received either 0.5 or 1 mCi ^3 H2 O/ml medium. This medium was aspirated after 24 hours and the cells were washed twice with phosphate buffered saline. The cells were frozen overnight at -20° C. after which they were harvested from the wells with 1 ml of trypsin-EDTA. Extracted lipids were separated on an HPLC system; cholesterol peaks were collected and counted in a scintillation counter. Results are expressed as the dpm ^3 H2 O incorporated into cholesterol.
In the screening assay the cells received compounds at various concentrations concommitantly with ^3 H2 O. When ethanol was the vehicle, the final ethanol concentration was 0.5%, and control wells with that concentration of ethanol were used in each experiment. Results are expressed as the percent dpm ^3 H2 O incorporated into cholesterol in treated vs control wells. IC50 values are calculated using a linear regression analysis.

human keratinocytes = assay: Inhibition of proliferation of cultured human keratinocytes (cell count by Coulter Counter); type: cell-based; conditions: Keratinocyte, 168 h, seven days, triplicate, read-out: Percent Inhibition on Keratinocyte Proliferation; for inhibition at 1 µM: 10^-6 M; for inhibition at 0.1 µM: 10^-7 M; for inhibition at 0.01 µM: 10^-8 M; for inhibition at 0.0001 µM: 10^-10 M
Description: Human neonatal foreskins were collected by circumcision and placed into tubes containing DMEM media. Upon arrival at the laboratory the foreskins were mechanically trimmed of excess dermis and treated with a solution of trypsin/EDTA (0.05%/0.02%) at 4° C. overnight. The epidermis was stripped from the dermis, agitated in buffered saline to remove basal keratinocytes and to separate the stratum corneum which was subsequently removed. The separated cells were centrifuged, resuspended in media, counted and the keratinocytes were plated onto a plain plastic culture dish.
The keratinocytes were plated at a density of about 10^5 cells/cm^2in 35 cm^2 dishes. The cells were grown in keratinocyte growth media (KGM®-modified MCDB 153 containing antibiotics by Clonetics of Boulder, Colo.) according to protocols originally developed by Boyce, S. T. and Ham, R. G., J. of Tissue Culture Meth. 9:83-93 (1985). The cells were grown for 5-10 days and changed every 2-3 days with keratinocyte growth media containing 1.5 mM CaCl2 (hereinafter KGM®/1.5 mM CaCl2) until cells reached a 75% confluency by visual observation. All the cultures were incubated in a humidified atmosphere of 5% CO2 at 37° C.
To establish keratinocyte cell cultures as antiproliferative assays, cells prepared as described in the foregoing were washed with PBS and removed from the culture surface with a solution of trypsin/EDTA (0.25%/0.03%). The removed cells were then centrifuged, resuspended in the KGM®/1.5 mM CaCl2 and counted. The cells were then distributed to 6 well plates at 100,000 cells per well as described in the foregoing. […] After 24-48 hours KGM®/1.5 mM CaCl2 which contained test compounds was added to the cells. The cultures maintained for seven days. The media was changed every 2-3 days.
Solutions of the test compounds were prepared as follows: 1 milligram quantities were received in amber glass vials, and stored at -20° C. Sufficient 100% ethanol was added directly to vials to obtain a millimolar solution that was subsequently aliquoted into small amber vials, overlayed with argon gas and stored at -20° C. Each stock solution was thawed once, used and discarded. Aliquots from the stock solutions were diluted directly into medium and then serially diluted from micromolar to 10^-12 M concentrations. Dilutions from 10^-7 M to 10^-12 M had ethanol added for a final concentration of 0.1%. Stock solutions were used within one month. Control cultures were treated with 0.1% ethanol.
For each experiment every culture well received the same number of cells from the same culture source. At the termination of the experiment the number of cells per was determined by the following procedure. Wells were washed twice with PBS and then incubated for approximately 10-20 minutes at 37° C. with a trypsin/EDTA solution (0.25%/03%). PBS plus 0.1% soybean trypsin inhibitor was added and the cells were suspended. An aliquot of the cells was placed into isotonic buffered saline and counted on an electronic particle counter (e.g. Coulter Counter® device by Coulter Electronics of Hialeah, Fla.).
Quantification of proliferation was done by enumerating the number of keratinocyte cells in each well using the Coulter Counter®. Results shown in Table 1 below show the percent reduction of keratinocyte cell number calculated for each of 4 concentrations of test compounds tested according to the formula: [formula]
For statistical analysis, the mean was calculated for all wells in each treatment group. Standard error was determined by nonbiased analysis using a value for the number of wells in each group, preferably N=3.
Each compound was tested in triplicate. The control (ETOH), as noted above, was 0.1% ethanol.

SMILES | activity as cholesterol biosynthesis inhibitors [1] | IC50 ([1]; HepG2, Test I) [µM] | IC50 ([1]; HepG2, Test II) [µM] | IC50 ([1]; HepG2, Test III) [µM] | inhibition at 1 µM (human keratinocytes) [%] | inhibition at 0.1 µM (human keratinocytes) [%] | inhibition at 0.01 µM (human keratinocytes) [%] | inhibition at 0.0001 µM (human keratinocytes) [%] | IC50 ([1]; HepG2, Test IV) [µM]
C[C@H]1C=C2C=C[C@H](C)[C@H](CC[C@@H]3C[C@@H](O)CC(=O)O3)[C@H]2[C@@H](OC(=O)C(C)(C)Oc2ccc(Cl)cc2)C1 [A, 2-(4-chlorophenoxy)-2-methylpropionic acid [1S-[1α,3α,7β,8β(2R*, 4R*),8aβ]]-1,2,3,7,8,8a-hexahydro-3,7-dimethyl-8-[2-[tetrahydro-4-hydroxy-6-oxo-2H-pyran-2-yl]ethyl]-1-naphthalenyl ester] | show activity as cholesterol biosynthesis inhibitors | 0.03 | 0.5 | 0.101 | 49.7 | 15.2 | 6.28 | 20.9 | –
C[C@H]1C=C2C=C[C@H](C)[C@H](CC[C@@H]3C[C@@H](O)CC(=O)O3)[C@H]2[C@@H](OC(=O)C(C)(C)C(C)(F)F)C1 [Compound B, 3,3-difluoro-2,2-dimethylbutanoic acid, [1S-[1α,3α,7β,8β(2R*,4R*)8aβ]]-8-[2-[tetrahydro-4-hydroxy-6-oxo-2H-pyran-2-yl]ethyl]-1,2,3,7,8,8a-hexahydro-3,7-dimethyl-1-naphthalenyl ester] | show activity as cholesterol biosynthesis inhibitors | – | – | – | 95.8 | 31.2 | 14.6 | 18 | 0.005
CC[C@H](C)C(=O)O[C@H]1C[C@@H](C)C=C2C=C[C@H](C)[C@H](CC[C@@H]3C[C@@H](O)CC(=O)O3)[C@H]21 [mevinolin, reference compound] | – | 0.02 | 0.1 | 0.076 | – | – | – | – | 0.008
